In the supplement of paper PMC10307832:

Columns and labels:
Experiment in all cases: relative viability (nuclei count vs DMSO), 5 days (fraction); higher = more cells survive
[1] = compound: COc1ccc(-c2ccc3c(N4CCOC[C@@H]4C)nc(N4CCOC[C@@H]4C)nc3n2)cc1CO [AZD8055] + O=C(c1cc(Cc2n[nH]c(=O)c3ccccc23)ccc1F)N1CCN(C(=O)C2CC2)CC1 [Olaparib] (partner 8 µM)
In short: (§1)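 Nuclei were stained with Hoechst during a one-step fixation (final 0.05% Triton X-100, 1% formaldehyde, 1 ug/ml Hoechst) carried out 5 days after dosing, then counted on 4× images. The cells, lung cancer lines in 1536-well plates, had been dosed by pin tool the day after seeding with one drug alone or a fixed anchor-drug dose plus five library-drug doses (not always all listed) in √10 steps. Relative viability is the nuclei count in treated wells divided by that in vehicle wells, and each value is the median of duplicate plates.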

[2] = compound: COc1ccc(-c2ccc3c(N4CCOC[C@@H]4C)nc(N4CCOC[C@@H]4C)nc3n2)cc1CO [AZD8055] + CC(=O)c1c(C)c2cnc(Nc3ccc(N4CCNCC4)cn3)nc2n(C2CCCC2)c1=O [Palbociclib] (partner 0.5 µM)
In short: as §1

[3] = compound: COc1ccc(-c2ccc3c(N4CCOC[C@@H]4C)nc(N4CCOC[C@@H]4C)nc3n2)cc1CO [AZD8055] + Cc1nc(NC(=O)N2CCC[C@H]2C(N)=O)sc1-c1ccnc(C(C)(C)C(F)(F)F)c1 [Alpelisib] (partner 2 µM)
In short: as §1

[4] = compound: COc1ccc(-c2ccc3c(N4CCOC[C@@H]4C)nc(N4CCOC[C@@H]4C)nc3n2)cc1CO [AZD8055] + Nc1nc2[nH]cc(CCc3ccc(C(=O)N[C@@H](CCC(=O)O)C(=O)O)cc3)c2c(=O)[nH]1 [Pemetrexed] (partner 0.2 µM)
In short: as §1

| Cell Line | relative viability ([1]; first compound 0.01 µM) | relative viability ([1]; first compound 0.03162 µM) | relative viability ([1]; first compound 0.1 µM) | relative viability ([1]; first compound 0.3162 µM) | relative viability ([1]; first compound 1 µM) | relative viability ([2]; first compound 0.01 µM) | relative viability ([2]; first compound 0.03162 µM) | relative viability ([2]; first compound 0.1 µM) | relative viability ([2]; first compound 0.3162 µM) | relative viability ([2]; first compound 1 µM) | relative viability ([3]; first compound 0.01 µM) | relative viability ([3]; first compound 0.03162 µM) | relative viability ([3]; first compound 0.1 µM) | relative viability ([3]; first compound 0.3162 µM) | relative viability ([3]; first compound 1 µM) | relative viability ([4]; first compound 0.01 µM) | relative viability ([4]; first compound 0.03162 µM) | relative viability ([4]; first compound 0.1 µM) | relative viability ([4]; first compound 0.3162 µM) | relative viability ([4]; first compound 1 µM) |
| --- | --- | --- | --- | --- | --- | --- | --- | --- | --- | --- | --- | --- | --- | --- | --- | --- | --- | --- | --- | --- |
| 201T | 0.878 | 0.854 | 0.813 | 0.673 | 0.456 | 0.354 | 0.314 | 0.278 | 0.251 | 0.303 | 0.987 | 0.911 | 0.775 | 0.611 | 0.569 | 0.312 | 0.317 | 0.359 | 0.293 | 0.293 |
| A549 | 0.279 | 0.359 | 0.21 | 0.142 | 0.0857 |  |  |  |  |  | 0.524 | 0.373 | 0.223 | 0.0986 | 0.109 |  |  |  |  |  |
| A-427 | 0.718 | 0.695 | 0.611 | 0.529 | 0.431 | 0.516 | 0.553 | 0.467 | 0.392 | 0.409 | 1.22 | 0.999 | 0.939 | 0.674 | 0.519 | 1.04 | 0.895 | 0.835 | 0.555 | 0.587 |
| ABC-1 | 1.3 | 1.37 | 0.992 | 0.717 | 0.907 | 0.915 | 0.54 | 0.483 | 0.503 | 0.47 | 0.897 | 0.847 | 0.65 | 0.404 | 0.515 |  |  |  |  |  |
| BEN | 1.15 | 0.884 | 0.658 | 0.455 | 0.518 | 0.485 | 0.472 | 0.436 | 0.475 | 0.413 | 1.06 | 0.593 | 0.391 | 0.341 | 0.338 | 0.815 | 0.589 | 0.514 | 0.421 | 0.449 |
| CAL-12T | 0.679 | 0.654 | 0.491 | 0.277 | 0.226 | 0.353 | 0.399 | 0.171 | 0.163 | 0.191 | 1.15 | 1.1 | 0.91 | 0.337 | 0.17 | 1.02 | 0.891 | 0.918 | 0.424 | 0.296 |
| COR-L23 | 0.408 | 0.42 | 0.277 | 0.143 | 0.141 | 0.319 | 0.226 | 0.199 | 0.126 | 0.124 | 0.837 | 0.551 | 0.395 | 0.155 | 0.154 | 0.204 | 0.194 | 0.186 | 0.177 | 0.178 |
| COR-L 105 | 0.738 | 0.741 | 0.707 | 0.455 | 0.448 | 0.426 | 0.388 | 0.374 | 0.403 | 0.381 | 0.975 | 0.737 | 0.798 | 0.271 | 0.315 | 1.3 | 1.16 | 1.29 | 0.664 | 0.485 |
| Calu-6 | 0.716 | 0.616 | 0.505 | 0.478 | 0.362 |  |  |  |  |  | 0.911 | 0.69 | 0.524 | 0.399 | 0.339 |  |  |  |  |  |
| ChaGo-K-1 | 0.457 | 0.48 | 0.456 | 0.437 | 0.395 | 1.01 | 0.87 | 0.864 | 0.728 | 0.652 |  |  |  |  |  | 0.26 | 0.262 | 0.256 | 0.251 | 0.271 |
